The record followed here is EP2140864A2 (H. Lundbeck A/S, priority 2001, dated 2002).

Assay [1] deals with Male albino Sprague-Dawley rats. As to the kind of experiment: Rat Social Interaction Test (SIT). In kind it is in vivo. The conditions noted are these: 5 mg/kg i.p., 1 hour prior to testing. The method, then: Rats were allowed to acclimate to the animal care facility for 5 days and were housed singly for 5 days prior to testing. Animals were handled for 5 minutes per day. The design and procedure for the Social Interaction Test was carried out as previously described by Kennett, et al. (1997). On the test day, weight matched pairs of rats (± 5%), unfamiliar to each other, were given identical treatments and returned to their home cages. Animals were randomly divided into 5 treatment groups, with 5 pairs per group, and were given one of the following i.p. treatments: Example 92 (10, 30 or 100 mg/kg), vehicle (1 ml/kg) or chlordiazepoxide (5 mg/kg). Dosing was 1 hour prior to testing. Rats were subsequently placed in a white perspex test box or arena (54 x 37 x 26 cm), whose floor was divided up into 24 equal squares, for 15 minutes. An air conditioner was used to generate background noise and to keep the room at approximately 74°F. All sessions were videotaped using a JVC camcorder (model GR-SZ1, Elmwood Park, NJ) with either TDK (HG ultimate brand) or Sony 30 minute videocassettes. All sessions were conducted between 1:00 - 4:30 P.M. Active social interaction, defined as grooming, sniffing, biting, boxing, wrestling, following and crawling over or under, was scored using a stopwatch (Sportsline model no. 226, 1/100 sec. discriminability). The number of episodes of rearing (animal completely raises up its body on its hind limbs), grooming (licking, biting, scratching of body), and face washing (i.e. hands are moved repeatedly over face), and number of squares crossed were scored. Passive social interaction (animals are lying beside or on top of each other) was not scored. All behaviors were assessed later by an observer who was blind as to the treatment of each pair. At the end of each test, the box was thoroughly wiped with moistened paper towels.
Male albino Sprague-Dawley rats (Taconic Farms, NY) were housed in pairs under a 12 hr light dark cycle (lights on at 0700 hrs.) with free access to food and water.
Example 92 was dissolved in 100% DMSO (Sigma Chemical Co., St. Louis, MO). Chlordiazepoxide (purchased from Sigma Chemical Co., St. Louis, MO) was dissolved in double distilled water. The vehicle consisted of 50% DMSO (v/v). All drug solutions were made up 10 minutes prior to injection and the solutions were discarded.
Example 34 was dissolved in 5% lactic acid, v/v. The vehicle consisted of 100% dimethylacetamide (DMA) and this was used to make up all drug solutions. All drug solutions were made up fresh each day and any unused solutions were discarded at the end of the test day. The volume of drug solution administered was 1 ml/kg.
The social interaction data (time interacting, rearing and squares crossed) were subjected to a randomized, one-way ANOVA and post hoc tests conducted using the Student-Newman-Keuls test. The data were subjected to a test of normality (Shapiro-Wilk test). The data were analyzed using the GBSTAT program, version 6.5 (Dynamics Microsystems, Inc., Silver Spring, MD, 1997). All data are presented as means ± S.E.M.

Assay [2] has the same test system. As to the kind of experiment: Rat Social Interaction Test (SIT). In kind it is in vivo.
[3] abbreviates: 5 mg/kg p.o., one hour before test.

Marks after values point to notes of the source that are not given here.

Turning to `CNC1=Nc2ccc(Cl)cc2C(c2ccccc2)=[N+]([O-])C1` [Chlordiazepoxide, chlordiazepoxide, reference compound], the “Grooming bouts” value in assay [1] is 7.3 ± 1.3; in assay [2] (setting [3]), 5.3 ± 0.7. Further, the results for the “Squares Crossed” value in assay [1] and in assay [2] (setting [3]) were 287 ± 28 and 265 ± 30, respectively. Also, in assay [2] (5 mg/kg i.p., 1 hour prior to testing), the Rearings is 30 ± 2. For the same compound, the “Social Interaction” value in assay [2] (5 mg/kg i.p., 1 hour prior to testing, unfamiliar rats, 15 minute test) is recorded as 188 ± 15^b sec; in assay [2] (5 mg/kg p.o., one hour before test, unfamiliar cage mates in a familiar arena), 122 ± 18^S sec. The same compound yielded a Rearing in assay [2] (setting [3]) of 35 ± 2.
